Patent US20110093959A1, “CRYPTOTIS PARVA SCREENING MODEL FOR ANTIEMETIC POTENTIAL” (priority 2008, published 2011)

Test system: Fos
Test: Fos expression in the dorsal vagal complex resulting from CIS-induced vomiting
Assay type: in vivo, Cryptotis parva
Conditions: CIS 10 mg/kg i.p.; vs vehicle in place of CIS
Description: After the appropriate time period for acute or delayed phase vomiting, shrews were anesthetized with a lethal dose of pentobarbital (100 mg/kg) and perfused transcardially via blunted needle with a peristaltic pump. The shrew was perfused with ice cold 4% paraformaldehyde and 5% picric acid in pH 7.4, 0.1 M phosphate buffer (10 min). Brains were removed and stored in 30% sucrose in 0.1 M PB overnight, then embedded in blocks of 12% gelatin in 30% sucrose/PB. The blocks were postfixed for 3 hr in 2% paraformaldehyde/PB, then rinsed and immersed in 30% sucrose/PB until they sank (usually 1-2 hr). The brain block was cut sagittally on a freezing benchtop microtome (Leica) at 30 μm into 5 series, and stored in PB with 0.03% sodium azide.
Immunolabeling was accomplished by blocking a free-floating series with 10% normal horse serum (NHS) and 3% hydrogen peroxide in PB with 0.3% Tri-ton X-100 (TX) for 30 min. After rinsing in PB, tissue was put in sheep anti-Fos polyclonal antibody (Chemicon/Millipore, Temecula, Calif.; 1:600), with 5% NHS and 0.3% TX in PB, and incubated for about 42 hr at room temperature (RT) with gentle shaking. After rinsing in PB, the tissue was placed in biotinylated donkey anti-sheep IgG secondary antibody (Jackson Immunoresearch, West Grove, Pa.; 1:600) diluted in the same diluent described for the primary antibody, and the tissue incubated at RT with shaking for 75 min Tissue was then rinsed and incubated for 60 min in HRP-conjugated avidin-biotin complex (Vector Labs, Burlingame, Calif.; Vectastain kit diluted 1:2) in PB. Tissue was then rinsed twice in PB, then once in imidazole-acetate buffer (0.1 M, pH 7.4), then reacted for 6 min in 0.0006% hydrogen peroxide with 2% nickel ammonium sulfate-enhanced diaminobenzidine (DAB, 0.05% in 0.1 M imidazole-acetate buffer). All reagents for DAB processing were purchased from Sigma-Aldrich. […]

## N.N.[Cl][Pt][Cl] [CIS, cis-platinum(II)diamine dichloride]
  Fos-IR in the DVC after CIS-induced vomiting: numerous Fos-IR nuclei
